In brackets after ≈: the same amount, converted by molar mass.
Test system: Neisseria gonorrhoeae
Assay: Agar dilution MIC assay, 25 isolates (Example 3)
Assay type: cell-based
Details: for Number of isolates at MIC 0.015 μg mL^−1 / Number of isolates at MIC 0.03 μg mL^−1 / Number of isolates at MIC 0.06 μg mL^−1 / Number of isolates at MIC 0.08 μg mL^−1 / Number of isolates at MIC 0.12 μg mL^−1 / Number of isolates at MIC 0.25 μg mL^−1 / Number of isolates at MIC 0.5 μg mL^−1 / Number of isolates at MIC 1 μg mL^−1 / Number of isolates at MIC 2 μg mL^−1 / Number of isolates at MIC 4 μg mL^−1 / Number of isolates at MIC 8 μg mL^−1 / Number of isolates at MIC >8 μg mL^−1 / Number of isolates at MIC ≤0.004 μg mL^−1: 25 isolates, agar dilution assay, MIC distribution; for MIC / MIC50 / MIC90: Neisseria gonorrhoeae, agar dilution; for MIC50 / MIC90: 25 isolates of N. gonorrhoeae
Protocol: The MIC of Neisseria gonorrhoea was established using an agar dilution MIC assay.
Test drugs were provided by Micromyx. All stock solutions were allowed to stand for at least 1 hr prior to use to auto-sterilize. Leftover stock solutions of comparator drugs were aliquoted and stored at −80° C. Suppliers, catalog/lot numbers, solvents, stock concentrations and testing ranges were as follows.
Test organisms were reference strains from the American Type Culture Collection (ATCC; Manassas, Va.), isolates from WHO, isolates from the CDC antibiotic resistance bank, and clinical isolates from the Micromyx (MMX) repository. Upon receipt at Micromyx, the isolates were streaked under suitable conditions onto agar medium appropriate to each organism and were incubated for 24-48 hr at 35° C. Colonies harvested from these growth plates were resuspended in the appropriate medium containing a cryoprotectant. Aliquots of each suspension were then frozen at −80° C.
Prior to testing, the isolates were sub-cultured onto Chocolate agar (Becton Dickenson [BD]/BBL; Sparks, Md., Cat. No. 221267, Lot No. 9346275) and placed at 35° C. in a CO2 incubator for 24 hrs.
MIC values were determined using the agar dilution method (1, 2). All serial dilutions and liquid handling were performed by hand using sterile pipettes. […] Cannabidiol was prepared as a stock solution at 100× the final concentration in the appropriate solvent and diluted according to CLSI guidelines.
Each test agent was mixed with molten (50-55° C.) GC media agar supplemented with 1% IsoVitalex. […] All other test agents were added to the medium in a ratio of 0.2 mL 100× test agent to 19.8 mL agar. Once test agents were added to the agar in a sterile tube, they were mixed gently and then poured into a sterile 110×15 mm petri dish. Plates were allowed to solidify at room temperature and placed in a laminar air flow hood with the covers off to remove condensed moisture on the agar surface.
Next, each isolate was suspended to the equivalent of a 0.5 McFarland standard in saline using a Siemens Microscan turbidity meter and diluted 1:10. Each bacterial cell suspension was then transferred to wells in a stainless-steel replicator block. The prongs on the replicator deliver approximately 1-2 μl of inoculum to an agar surface. The resulting inoculum spots contained approximately 10^4 cells/spot.
Each agar plate containing either test compound or no drug (control) was stamped with the replicator. All plates were placed with the agar surface up to allow for the inoculum to soak into the agar. The plates were inverted and incubated at 35° C. for 24 hrs in a CO2 incubator and finally inspected for growth.

[1] = ATCC49226, N. gonorrhoeae ATCC 49226 (QC)
[2] = N. gonorrhoeae MMX 10409 (CIP-R)
[3] = NCTC13477, N. gonorrhoeae NCTC 13477 (WHO F)
[4] = NCTC13478, N. gonorrhoeae NCTC 13478 (WHO G)
[5] = NCTC13479, N. gonorrhoeae NCTC 13479 (WHO K)
[6] = NCTC13480, N. gonorrhoeae NCTC 13480 (WHO L)
[7] = NCTC13481, N. gonorrhoeae NCTC 13481 (WHO M)
[8] = NCTC13482, N. gonorrhoeae NCTC 13482 (WHO N)
[9] = NCTC13483, N. gonorrhoeae NCTC 13483 (WHO O)
[10] = NCTC13817, N. gonorrhoeae NCTC 13817 (WHO U)
[11] = NCTC13818, N. gonorrhoeae NCTC 13818 (WHO V)
[12] = NCTC13819, N. gonorrhoeae NCTC 13819 (WHO W)
[13] = NCTC13820, N. gonorrhoeae NCTC 13820 (WHO X)

| Structure (SMILES) | Number of isolates at MIC 0.015 μg mL^−1 | Number of isolates at MIC 0.03 μg mL^−1 | Number of isolates at MIC 0.06 μg mL^−1 | Number of isolates at MIC 0.08 μg mL^−1 | Number of isolates at MIC 0.12 μg mL^−1 | Number of isolates at MIC 0.25 μg mL^−1 | Number of isolates at MIC 0.5 μg mL^−1 | Number of isolates at MIC 1 μg mL^−1 | Number of isolates at MIC 2 μg mL^−1 | Number of isolates at MIC 4 μg mL^−1 | Number of isolates at MIC 8 μg mL^−1 | Number of isolates at MIC >8 μg mL^−1 | Number of isolates at MIC ≤0.004 μg mL^−1 | MIC [1] [µg/mL] | MIC (N. gonorrhoeae CDC0165) [µg/mL] | MIC (N. gonorrhoeae CDC0167) [µg/mL] | MIC (N. gonorrhoeae CDC 0175) [µg/mL] | MIC (N. gonorrhoeae CDC 0177) [µg/mL] | MIC (N. gonorrhoeae CDC 0178) [µg/mL] | MIC (N. gonorrhoeae CDC 0181) [µg/mL] | also measured |
| --- | --- | --- | --- | --- | --- | --- | --- | --- | --- | --- | --- | --- | --- | --- | --- | --- | --- | --- | --- | --- | --- |
| CO/N=C(\C(=O)N[C@@H]1C(=O)N2C(C(=O)O)=C(CSc3nc(=O)c(=O)[nH]n3C)CS[C@H]12)c1csc(N)n1 [CRO, ceftriaxone] | 6 | 1 | 6 | 5 | 1 | 2 | 0 | 0 | 1 | 0 | 0 | 0 | 3 | 0.015 (≈ 0.027 µM) | 0.06 (≈ 0.108 µM) | 0.004 (≈ 0.00721 µM) | 0.008 (≈ 0.0144 µM) | 0.015 (≈ 0.027 µM) | 0.06 (≈ 0.108 µM) | 0.008 (≈ 0.0144 µM) | MIC (N. gonorrhoeae CDC 0194): 0.25 µg/mL (≈ 0.451 µM); MIC (N. gonorrhoeae CDCO174): 0.06 µg/mL (≈ 0.108 µM); MIC [2]: 0.06 µg/mL (≈ 0.108 µM); MIC [3]: < 0.004 µg/mL; MIC [4]: 0.015 µg/mL (≈ 0.027 µM); MIC [5]: 0.015 µg/mL (≈ 0.027 µM); MIC [6]: 0.25 µg/mL (≈ 0.451 µM); MIC [7]: 0.008 µg/mL (≈ 0.0144 µM); MIC [8]: 0.008 µg/mL (≈ 0.0144 µM); MIC [9]: 0.015 µg/mL (≈ 0.027 µM); MIC [10]: 0.002 µg/mL (≈ 0.00361 µM); MIC [11]: 0.015 µg/mL (≈ 0.027 µM); MIC [12]: 0.12 µg/mL (≈ 0.216 µM); MIC [13]: 2 µg/mL (≈ 3.61 µM); MIC50: 0.015 µg/mL (≈ 0.027 µM); MIC90: 0.25 µg/mL (≈ 0.451 µM) |
| C=C(C)C1CCC(C)=CC1c1c(O)cc(CCCCC)cc1O (stereo not shown) [CBD, 2-[3-methyl-6-(1-methylethenyl)-2-cyclohexen-1-yl]-5-pentyl-1,3-benzenediol] | 0 | 0 | 0 | 0 | 0 | 0 | 2 | 14 | 9 | 0 | 0 | 0 | 0 | 2 (≈ 6.36 µM) | 2 (≈ 6.36 µM) | 1 (≈ 3.18 µM) | 1 (≈ 3.18 µM) | 1 (≈ 3.18 µM) | 2 (≈ 6.36 µM) | 0.5 (≈ 1.59 µM) | MIC (N. gonorrhoeae CDC0166): 9 µg/mL (≈ 28.6 µM); MIC (N. gonorrhoeae CDC 0172): 7 µg/mL (≈ 22.3 µM); MIC (N. gonorrhoeae CDC 0180): 7 µg/mL (≈ 22.3 µM); MIC (N. gonorrhoeae CDC 0194): 1 µg/mL (≈ 3.18 µM); MIC (N. gonorrhoeae CDCO174): 2 µg/mL (≈ 6.36 µM); MIC [2]: 1 µg/mL (≈ 3.18 µM); MIC [3]: 1 µg/mL (≈ 3.18 µM); MIC [4]: 1 µg/mL (≈ 3.18 µM); MIC [5]: 0.5 µg/mL (≈ 1.59 µM); MIC [6]: 2 µg/mL (≈ 6.36 µM); MIC [7]: 1 µg/mL (≈ 3.18 µM); MIC [8]: 1 µg/mL (≈ 3.18 µM); MIC [9]: 1 µg/mL (≈ 3.18 µM); MIC (NCTC13484, N. gonorrhoeae NCTC 13484 (WHO P)): 7 µg/mL (≈ 22.3 µM); MIC [10]: 1 µg/mL (≈ 3.18 µM); MIC [11]: 1 µg/mL (≈ 3.18 µM); MIC [12]: 1 µg/mL (≈ 3.18 µM); MIC [13]: 1 µg/mL (≈ 3.18 µM); MIC50: 1 µg/mL (≈ 3.18 µM); MIC90: 2 µg/mL (≈ 6.36 µM) |
